From ChEMBL document CHEMBL4038272, “Synthesis and biological evaluation of novel podophyllotoxin-NSAIDs conjugates as multifunctional anti-MDR agents against resistant human hepatocellular carcinoma Bel-7402/5-FU cells” (Eur J Med Chem, 2017)
Calls of active or inactive are those of the source. No cut-off for these calls is given here.

Key:
Bel7402/5-FU [1] = test: Antimigratory activity in human Bel7402/5-FU cells at 10 uM after 24 hrs by wound healing assay; type: functional, cell-based
Bel7402/5-FU [2] = test: Induction of apoptosis in human Bel7402/5-FU cells assessed as necrotic cells at 10 uM after 48 hrs by Annexin V-APC/7-AAD staining based flow cytometry (reference value: 0.58%); type: functional
[3] = Resistant factor, ratio of IC50 for human Bel7402/5-FU cells to IC50 for human Bel7402 cells; type: functional
Bel7402/5-FU [4] = test: Induction of apoptosis in human Bel7402/5-FU cells assessed as ratio of cleaved caspase-8 to beta-actin level at 10 uM after 48 hrs by Western blot analysis (reference value: 0.17); type: functional
Bel7402/5-FU [5] = test: Effect on MMP2 expression in human Bel7402/5-FU cells assessed as ratio of MMP2 to beta-actin level at 10 uM after 48 hrs by Western blot analysis (reference value: 0.3); type: functional
Bel7402/5-FU [6] = test: Induction of apoptosis in human Bel7402/5-FU cells assessed as early apoptotic cells at 10 uM after 48 hrs by Annexin V-APC/7-AAD staining based flow cytometry (reference value: 5.24%); type: functional
Bel7402/5-FU [7] = test: Effect on E-cadherin expression in human Bel7402/5-FU cells assessed as ratio of E-cadherin to beta-actin level at 10 uM after 48 hrs by Western blot analysis (reference value: 0.2); type: functional
[8] = biological target: Mitogen-activated protein kinase; ERK1/ERK2 (Homo sapiens) (UniProt P27361+P28482); test: Effect on ERK1/2 phosphorylation in human Bel7402/5-FU cells assessed as ratio of phosphorylated ERK1/2 to beta-actin level at 10 uM after 48 hrs by Western blot analysis (reference value: 0.59); type: cell-based
Bel7402/5-FU [9] = test: Induction of apoptosis in human Bel7402/5-FU cells assessed as condensed nuclei at 10 uM after 24 hrs by Hoechst 33342 staining based fluorescent microscopic method; type: functional, cell-based
Bel7402/5-FU [10] = test: Reduction in microtubule density in human Bel7402/5-FU cells at 10 uM after 24 to 48 hrs by DAPI staining based immunofluorescence microscopic method; type: functional, cell-based
Bel7402/5-FU [11] = test: Induction of apoptosis in human Bel7402/5-FU cells assessed as ratio of cleaved caspase-3 to beta-actin level at 10 uM after 48 hrs by Western blot analysis (reference value: 0.19); type: functional
Bel7402/5-FU [12] = test: Induction of apoptosis in human Bel7402/5-FU cells assessed as morphological changes at 10 uM after 24 hrs by Hoechst 33342 staining based fluorescent microscopic method; type: functional, cell-based
Bel7402/5-FU [13] = test: Effect on cyclinA expression in human Bel7402/5-FU cells assessed as ratio of cyclinA to beta-actin level at 10 uM after 48 hrs by Western blot analysis (reference value: 0.39); type: functional
Bel7402/5-FU [14] = test: Cell cycle arrest in human Bel7402/5-FU cells assessed as accumulation at G1 phase at 10 uM after 48 hrs by propidium iodide staining based flow cytometry (reference value: 52.21%); type: functional
Bel7402/5-FU [15] = test: Effect on iNOS expression in human Bel7402/5-FU cells assessed as ratio of iNOS to beta-actin level at 10 uM after 48 hrs by Western blot analysis (reference value: 0.13); type: functional
Bel7402/5-FU [16] = test: Induction of apoptosis in human Bel7402/5-FU cells assessed as reduction in cell number at 10 uM after 24 hrs by Hoechst 33342 staining based fluorescent microscopic method; type: functional
Bel7402/5-FU [17] = test: Effect on COX1 expression in human Bel7402/5-FU cells assessed as ratio of COX1 to beta-actin level at 10 uM after 48 hrs by Western blot analysis (reference value: 0.48); type: functional
Bel7402/5-FU [18] = test: Effect on cyclinB1 expression in human Bel7402/5-FU cells assessed as ratio of cyclinB1 to beta-actin level at 10 uM after 48 hrs by Western blot analysis (reference value: 0.53); type: functional
Bel7402/5-FU [19] = test: Induction of apoptosis in human Bel7402/5-FU cells assessed as late apoptotic cells at 10 uM after 48 hrs by Annexin V-APC/7-AAD staining based flow cytometry (reference value: 3%); type: functional
Bel-7402 = test: Antiproliferative activity against human Bel7402 cells after 72 hrs by CCK-8 assay; type: functional, cell-based; conditions: Bel-7402, 72 h
Bel7402/5-FU [20] = test: Induction of apoptosis in human Bel7402/5-FU cells assessed as ratio of cleaved caspase-9 to beta-actin level at 10 uM after 48 hrs by Western blot analysis (reference value: 0.17); type: functional
Bel7402/5-FU [21] = test: Effect on COX2 expression in human Bel7402/5-FU cells assessed as ratio of COX2 to beta-actin level at 10 uM after 48 hrs by Western blot analysis (reference value: 0.36); type: functional
Bel7402/5-FU [22] = test: Effect on VEGFR2 expression in human Bel7402/5-FU cells assessed as ratio of VEGFR2 to beta-actin level at 10 uM after 48 hrs by Western blot analysis (reference value: 0.25); type: functional
Bel7402/5-FU [23] = test: Induction of apoptosis in human Bel7402/5-FU cells assessed as ratio of cleaved PARP to beta-actin level at 10 uM after 48 hrs by Western blot analysis (reference value: 0.2); type: functional
Bel7402/5-FU [24] = test: Effect on P-gp expression in human Bel7402/5-FU cells assessed as ratio of P-gp to beta-actin level at 10 uM after 48 hrs by Western blot analysis (reference value: 0.59); type: functional
Bel7402/5-FU [25] = test: Induction of microtubule disruption in human Bel7402/5-FU cells at 10 uM after 24 to 48 hrs by DAPI staining based immunofluorescence microscopic method; type: functional, cell-based
[26] = biological target: Signal transducer and activator of transcription 3 (Homo sapiens) (UniProt P40763); test: Effect on STAT3 phosphorylation in human Bel7402/5-FU cells assessed as ratio of phosphorylated STAT3 to beta-actin level at 10 uM after 48 hrs by Western blot analysis (reference value: 0.3); type: cell-based
Bel7402/5-FU [27] = test: Induction of apoptosis in human Bel7402/5-FU cells assessed as live cells at 10 uM after 48 hrs by Annexin V-APC/7-AAD staining based flow cytometry (reference value: 91.08%); type: functional
[28] = biological target: RAC-alpha serine/threonine-protein kinase (Homo sapiens) (UniProt P31749); test: Effect on AKT phosphorylation in human Bel7402/5-FU cells assessed as ratio of phosphorylated AKT to beta-actin level at 10 uM after 48 hrs by Western blot analysis (reference value: 0.39); type: cell-based
Bel7402/5-FU [29] = test: Effect on MRP1 expression in human Bel7402/5-FU cells assessed as ratio of MRP1 to beta-actin level at 10 uM after 48 hrs by Western blot analysis (reference value: 0.58); type: functional
Bel7402/5-FU [30] = test: Induction of apoptosis in human Bel7402/5-FU cells at 10 uM after 24 hrs by Hoechst 33342 staining based fluorescent microscopic method; type: functional, cell-based
L02 = test: Antiproliferative activity against human LO2 cells after 72 hrs by CCK-8 assay; type: cell-based; conditions: L02, 72 h
Bel7402/5-FU [31] = test: Antiproliferative activity against human Bel7402/5-FU cells after 72 hrs by CCK-8 assay; type: functional, cell-based
Bel7402/5-FU [32] = test: Effect on CDK2 expression in human Bel7402/5-FU cells assessed as ratio of CDK2 to beta-actin level at 10 uM after 48 hrs by Western blot analysis (reference value: 0.43); type: functional
Bel7402/5-FU [33] = test: Cell cycle arrest in human Bel7402/5-FU cells assessed as accumulation at S phase at 10 uM after 48 hrs by propidium iodide staining based flow cytometry (reference value: 12.62%); type: functional
Bel7402/5-FU [34] = test: Effect on CDK1 expression in human Bel7402/5-FU cells assessed as ratio of CDK1 to beta-actin level at 10 uM after 48 hrs by Western blot analysis (reference value: 0.33); type: functional
Bel7402/5-FU [35] = test: Cell cycle arrest in human Bel7402/5-FU cells assessed as accumulation at G2 phase at 10 uM after 48 hrs by propidium iodide staining based flow cytometry (reference value: 35.16%); type: functional

Sequence of Signal transducer and activator of transcription 3 (Homo sapiens) (P40763 whole entry): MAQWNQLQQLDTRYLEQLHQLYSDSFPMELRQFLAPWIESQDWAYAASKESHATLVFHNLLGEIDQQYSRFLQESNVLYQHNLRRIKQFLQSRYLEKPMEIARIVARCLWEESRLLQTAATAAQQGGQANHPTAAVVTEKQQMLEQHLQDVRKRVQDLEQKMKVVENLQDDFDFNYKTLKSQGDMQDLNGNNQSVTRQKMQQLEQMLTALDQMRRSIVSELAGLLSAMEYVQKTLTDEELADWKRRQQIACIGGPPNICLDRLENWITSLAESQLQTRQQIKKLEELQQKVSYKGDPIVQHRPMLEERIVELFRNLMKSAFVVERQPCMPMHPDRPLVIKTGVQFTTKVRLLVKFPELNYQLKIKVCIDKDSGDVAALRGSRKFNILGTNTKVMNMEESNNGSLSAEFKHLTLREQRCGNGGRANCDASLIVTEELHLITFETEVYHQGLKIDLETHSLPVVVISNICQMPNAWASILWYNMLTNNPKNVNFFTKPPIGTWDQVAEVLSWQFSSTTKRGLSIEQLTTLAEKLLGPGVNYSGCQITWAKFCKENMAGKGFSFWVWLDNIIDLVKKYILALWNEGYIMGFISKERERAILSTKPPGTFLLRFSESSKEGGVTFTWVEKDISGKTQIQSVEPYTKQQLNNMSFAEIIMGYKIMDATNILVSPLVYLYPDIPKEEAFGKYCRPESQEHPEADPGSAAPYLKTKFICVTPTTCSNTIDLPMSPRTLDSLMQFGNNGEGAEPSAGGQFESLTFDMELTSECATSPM
Sequence of Mitogen-activated protein kinase; ERK1/ERK2 (Homo sapiens) (P27361 whole entry, looked up): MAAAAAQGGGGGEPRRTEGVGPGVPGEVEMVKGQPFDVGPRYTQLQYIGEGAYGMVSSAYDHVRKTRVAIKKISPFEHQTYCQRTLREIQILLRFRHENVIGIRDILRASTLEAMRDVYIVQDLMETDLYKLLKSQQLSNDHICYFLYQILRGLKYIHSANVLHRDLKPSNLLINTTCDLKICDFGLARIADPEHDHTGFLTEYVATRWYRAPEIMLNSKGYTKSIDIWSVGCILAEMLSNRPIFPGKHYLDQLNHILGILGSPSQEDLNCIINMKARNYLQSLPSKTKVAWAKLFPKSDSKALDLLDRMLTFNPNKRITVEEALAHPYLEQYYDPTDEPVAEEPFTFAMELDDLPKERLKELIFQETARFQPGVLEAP
Sequence of Mitogen-activated protein kinase; ERK1/ERK2 (Homo sapiens) (P28482 whole entry, looked up): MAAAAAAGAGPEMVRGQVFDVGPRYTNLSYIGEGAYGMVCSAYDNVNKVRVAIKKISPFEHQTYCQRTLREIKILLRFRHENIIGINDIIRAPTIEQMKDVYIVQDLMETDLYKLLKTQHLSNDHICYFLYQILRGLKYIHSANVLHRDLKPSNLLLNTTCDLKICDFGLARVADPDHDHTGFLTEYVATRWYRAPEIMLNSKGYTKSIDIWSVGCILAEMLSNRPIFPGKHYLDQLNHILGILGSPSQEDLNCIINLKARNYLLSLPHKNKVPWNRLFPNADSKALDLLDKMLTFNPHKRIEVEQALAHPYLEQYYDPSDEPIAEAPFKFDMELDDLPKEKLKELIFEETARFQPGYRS
Sequence of RAC-alpha serine/threonine-protein kinase (Homo sapiens) (P31749 whole entry): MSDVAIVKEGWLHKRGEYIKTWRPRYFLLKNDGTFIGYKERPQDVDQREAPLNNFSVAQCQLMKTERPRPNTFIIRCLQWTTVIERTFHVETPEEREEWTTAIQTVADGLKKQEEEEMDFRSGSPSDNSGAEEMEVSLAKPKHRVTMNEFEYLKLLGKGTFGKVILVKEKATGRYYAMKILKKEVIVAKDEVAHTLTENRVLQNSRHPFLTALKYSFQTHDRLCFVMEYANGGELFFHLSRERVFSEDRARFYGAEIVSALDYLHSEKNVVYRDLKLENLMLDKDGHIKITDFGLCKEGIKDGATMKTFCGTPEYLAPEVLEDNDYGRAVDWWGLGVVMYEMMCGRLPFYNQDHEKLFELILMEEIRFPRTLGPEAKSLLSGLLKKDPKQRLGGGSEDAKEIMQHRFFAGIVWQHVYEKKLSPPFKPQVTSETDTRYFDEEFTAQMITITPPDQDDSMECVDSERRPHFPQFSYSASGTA

**Q.** Which Activity (Bel7402/5-FU [1]) does the source give for `COc1cc([C@@H]2c3cc4c(cc3[C@H](OC(=O)C(C)c3ccc(CC(C)C)cc3)[C@H]3COC(=O)[C@H]23)OCO4)cc(OC)c1OC` (some centres not stated) here?
**A.** Active

**Q.** What about the Activity (Bel7402/5-FU [2]) of the same compound?
**A.** 9.59%

**Q.** What about the “Ratio IC50” value [3] of the same compound?
**A.** 0.54

**Q.** And the Ratio (Bel7402/5-FU [4])?
**A.** 0.25

**Q.** And the Ratio (Bel7402/5-FU [5])?
**A.** 0.21

**Q.** What about the Activity (Bel7402/5-FU [6]) of the same compound?
**A.** 7.12%

**Q.** And the Ratio (Bel7402/5-FU [7])?
**A.** 0.29

**Q.** And the Ratio [8]?
**A.** 0.55

**Q.** And the Activity (Bel7402/5-FU [9])?
**A.** Active

**Q.** And the Activity (Bel7402/5-FU [10])?
**A.** Active

**Q.** What about the Ratio (Bel7402/5-FU [11]) of the same compound?
**A.** 0.33

**Q.** And the Activity (Bel7402/5-FU [12])?
**A.** Active

**Q.** And the Ratio (Bel7402/5-FU [13])?
**A.** 0.36

**Q.** And the Activity (Bel7402/5-FU [14])?
**A.** 8.88%

**Q.** What about the Ratio (Bel7402/5-FU [15]) of the same compound?
**A.** 0.23

**Q.** And the Activity (Bel7402/5-FU [16])?
**A.** Active

**Q.** What about the Ratio (Bel7402/5-FU [17]) of the same compound?
**A.** 0.46

**Q.** What about the Ratio (Bel7402/5-FU [18]) of the same compound?
**A.** 0.52

**Q.** What about the Activity (Bel7402/5-FU [19]) of the same compound?
**A.** 21.24%

**Q.** And the IC50 (Bel-7402)?
**A.** 18.9 µM

**Q.** What about the Ratio (Bel7402/5-FU [20]) of the same compound?
**A.** 0.25

**Q.** What about the Ratio (Bel7402/5-FU [21]) of the same compound?
**A.** 0.43

**Q.** And the Ratio (Bel7402/5-FU [22])?
**A.** 0.18

**Q.** And the Ratio (Bel7402/5-FU [23])?
**A.** 0.35

**Q.** What about the Ratio (Bel7402/5-FU [24]) of the same compound?
**A.** 0.61

**Q.** And the Activity (Bel7402/5-FU [25])?
**A.** Active

**Q.** And the Ratio [26]?
**A.** 0.4

**Q.** And the Activity (Bel7402/5-FU [27])?
**A.** 62.05%

**Q.** What about the Ratio [28] of the same compound?
**A.** 0.42

**Q.** What about the Ratio (Bel7402/5-FU [29]) of the same compound?
**A.** 0.7

**Q.** What about the Activity (Bel7402/5-FU [30]) of the same compound?
**A.** Active

**Q.** And the IC50 (L02)?
**A.** 7.38 µM

**Q.** What about the IC50 (Bel7402/5-FU [31]) of the same compound?
**A.** 10.3 µM

**Q.** And the Ratio (Bel7402/5-FU [32])?
**A.** 0.38

**Q.** And the Activity (Bel7402/5-FU [33])?
**A.** 27.34%

**Q.** What about the Ratio (Bel7402/5-FU [34]) of the same compound?
**A.** 0.29

**Q.** And the Activity (Bel7402/5-FU [35])?
**A.** 63.78%
